{
  "source": "patent US11446351B2",
  "about": "“Composition for treating one or more estrogen related diseases” (LIFEARC, priority 2018, dated 2022)",
  "type_in_all_cases": "in vivo, human",
  "key": {"women [1]": {"tested_on": "women", "test": "Phase I study (Example 2): bone marker deoxypyridinoline (DPD) in urine", "settings": "30 mg and 45 mg, days 1-64, FIG. 7", "protocol": "(§1) In order to evaluate the effect of the treatment with Teverelix TFA on the bone mineral density, two biochemical bone mineral markers was measured in the subjects. Telopeptides type I collagen, cross-linked, […] (CTX) was measured in serum of the treated subjects, and deoxypyridinoline (DPD) was measured in the subject's urine.\n(§2) Said bone markers were measured on the following days in the test period: 1 (pre-dose), 15, 29, 43, 57, 64\n(§3) DPD is a dynamic biochemical marker of bone loss. An increase in DPD levels in an early morning urine specimen is a reliable indicator of increased bone loss. The CTX test measures for the presence and concentration of a crosslink peptide sequence of type I collagen, found, among other tissues, in bone. This specific peptide sequence relates to bone turnover because it is the portion that is cleaved by osteoclasts during bone resorption, and its serum levels are therefore proportional to osteoclastic activity at the time the blood sample is drawn.\n(§4) The concentration of DPD and CTX test were carried out at MOS Pharma Services, Central Lab GmbH, Grossmoorbogen 25, 21079 Hamburg, Germany by means of highly sensitive and specific validated chemi-luminescent (CUA) and enzyme-linked immuno-sorbent (ELISA) methods. The results are shown in FIG. 7 and table 6 respectively."}, "healthy female subjects [2]": {"tested_on": "healthy female subjects", "test": "Phase I trial (Example 1): progesterone, LH and FSH in serum", "protocol": "(§5) A phase I clinical trial with formulation A and B (and placebo) was conducted in order to evaluate the pharmacokinetics, pharmacodynamics, safety and tolerability of Teverelix TFA.\n(§6) The formulations were each injected subcutaneous (s.c.) as follows: • A single dosage of formulation A (60 mg Teverelix TFA) administered s.c. on day 3±1 of the menstrual cycle, to 8 healthy female subjects • A single dosage of formulation A placebo was administered s.c. to on day 3±1 of the menstrual cycle, to 4 healthy female subjects • Two dosages of formulation B (45 mg Teverelix TFA) administered s.c. to 8 healthy female subjects. The first dosage on day 3±1 of the menstrual cycle and a second dosage administered on day 10±1 of the menstrual cycle, and • two dosages of formulation B placebo was administered s.c. to 4 healthy female subjects. The first dosage on day 3±1 of the […] menstrual cycle and a second dosage administered on day 10±1 of the menstrual cycle."}, "healthy female subjects [3]": {"tested_on": "healthy female subjects", "test": "Phase I trial (Example 1): estradiol concentration in serum", "protocol": "The Teverelix TFA formulations were manufactured as followed. 0.8 ml or 0.6 ml 5% mannitol were added to the relevant dosage of 60 or 45 mg of the LHRH antagonist Teverelix® trifluoroacetate, respectively. The mixture was stirred using vortex during one minute providing two dosage formulations of Teverelix TFA in a flowing milky pearly microcrystalline aqueous suspensions. The suspensions are made of microcrystals of about 10 μm length. Corresponding placebo formulations, without Teverelix TFA was also prepared\nas §5, §6\nThe mean estradiol concentration in the respective subjects was measured. The results are shown in table 1 and 2, respectively and is depicted in FIG. 1 in relation to the placebo data."}, "women [4]": {"tested_on": "women", "test": "Phase I study (Example 2): bone marker CTX in serum", "protocol": "as §1, §2, §3, §4"}},
  "note": "Counter-ions that a name gives are not always drawn. Where a SMILES comes first, the peptide text is derived from it. [ ]: non-standard residue; d: D form. dPhe(4-Cl) = N[C@H](Cc1ccc(Cl)cc1)C(=O)O; d2Nal = N[C@H](Cc1ccc2ccccc2c1)C(=O)O; d(hCit) = NC(=O)NCCCC[C@@H](N)C(=O)O; Lys(iPr) = CC(C)NCCCC[C@H](N)C(=O)O; d3Pal = N[C@H](Cc1cccnc1)C(=O)O",
  "data": [
    {"smiles": "CC(=O)N[C@H](Cc1ccc2ccccc2c1)C(=O)N[C@H](Cc1ccc(Cl)cc1)C(=O)N[C@H](Cc1cccnc1)C(=O)N[C@@H](CO)C(=O)N[C@@H](Cc1ccc(O)cc1)C(=O)N[C@H](CCCCNC(N)=O)C(=O)N[C@@H](CC(C)C)C(=O)N[C@@H](CCCCNC(C)C)C(=O)N1CCC[C@H]1C(=O)N[C@H](C)C(N)=O", "note": "[Teverelix TFA, N-Ac-d-Nal^1,d-pCl-Phe^2,d-Pal^3,d-(Hci)^6,Lys(iPr)^8,d-Ala^10 trifluoroacetate] (Ac-[d2Nal][dPhe(4-Cl)][d3Pal]SY[d(hCit)]L[Lys(iPr)]P[dA]-NH2; C-terminus assumed)", "values": [
      {"measurement": "alteration in bone marker urine DPD during the study", "setting": "women [1]", "value": "no significant alteration"},
      {"measurement": "concentration of progesterone following dosing", "setting": "healthy female subjects [2]; FIG. 2", "value": "decreased"},
      {"measurement": "concentration of LH following dosing", "setting": "healthy female subjects [2]; FIG. 3", "value": "decreased"},
      {"measurement": "concentration of FSH following dosing", "setting": "healthy female subjects [2]; FIG. 4", "value": "decreased"},
      {"measurement": "time at which estradiol returned to near baseline and menses reoccurred in at least one subject", "setting": "healthy female subjects [3]; 2 × 45 mg one week apart", "value": 1008, "unit": "h p.f.a"},
      {"measurement": "estradiol mean (SD) concentration relative to baseline", "setting": "healthy female subjects [3]; 2 × 45 mg, after first injection, 48 h p.f.a.", "value": "−14.56 (9.95) ng/L"},
      {"measurement": "estradiol mean (SD) concentration relative to baseline", "setting": "healthy female subjects [3]; 2 × 45 mg, after second injection, 312 h p.f.a.", "value": "−14.20 (10.85) ng/L"},
      {"measurement": "estradiol concentrations when compared to placebo", "setting": "healthy female subjects [3]; both doses (60 mg; 2 × 45 mg), FIG. 1", "value": "significantly reduced"},
      {"measurement": "time at which estradiol returned to near baseline and menses reoccurred in at least one subject", "setting": "healthy female subjects [3]; single 60 mg", "value": 840, "unit": "h p.f.a"},
      {"measurement": "estradiol mean (SD) concentration relative to baseline", "setting": "healthy female subjects [3]; single 60 mg, 264 h p.f.a", "value": "−31.22 (23.11) ng/L"},
      {"measurement": "estradiol mean (SD) concentration relative to baseline", "setting": "healthy female subjects [3]; single 60 mg, 456 h p.f.a", "value": "−1.04 (90.98) ng/L"},
      {"measurement": "alteration in bone marker serum CTX during the study", "setting": "women [4]; 30 mg and 45 mg, days 1-64", "value": "no significant alteration"},
      {"measurement": "CTX in serum, Mean", "setting": "women [4]; 30 mg, Day 1 (pre-dose)", "value": 16.7, "unit": "ng/L"},
      {"measurement": "CTX in serum, Mean", "setting": "women [4]; 30 mg, Day 15", "value": 17.1, "unit": "ng/L"},
      {"measurement": "CTX in serum, Mean", "setting": "women [4]; 30 mg, Day 29", "value": 17, "unit": "ng/L"},
      {"measurement": "CTX in serum, Mean", "setting": "women [4]; 30 mg, Day 43", "value": 16.7, "unit": "ng/L"},
      {"measurement": "CTX in serum, Mean", "setting": "women [4]; 30 mg, Day 57", "value": 16.5, "unit": "ng/L"},
      {"measurement": "CTX in serum, Mean", "setting": "women [4]; 30 mg, Day 64", "value": 16.2, "unit": "ng/L"},
      {"measurement": "CTX in serum, Mean", "setting": "women [4]; 45 mg, Day 1 (pre-dose)", "value": 22.6, "unit": "ng/L"},
      {"measurement": "CTX in serum, Mean", "setting": "women [4]; 45 mg, Day 15", "value": 22.4, "unit": "ng/L"},
      {"measurement": "CTX in serum, Mean", "setting": "women [4]; 45 mg, Day 29", "value": 21.6, "unit": "ng/L"},
      {"measurement": "CTX in serum, Mean", "setting": "women [4]; 45 mg, Day 43", "value": 22, "unit": "ng/L"},
      {"measurement": "CTX in serum, Mean", "setting": "women [4]; 45 mg, Day 57", "value": 19.3, "unit": "ng/L"},
      {"measurement": "CTX in serum, Mean", "setting": "women [4]; 45 mg, Day 64", "value": 17.3, "unit": "ng/L"}
    ]}
  ]
}
